# Measurements taken from patent US20160281125A1, “ANTIMICROBIAL COMPOUND SUSCEPTIBILITY TEST” (priority 2013, published 2016).
# Tests used:
# K. pneumo 13882 = test: Selective lysis test, OD600, meropenem and cefotaxime (Example 2); assay type: cell-based, K. pneumoniae
# Method: (§1) In this experiment the following strains were tested: strain K. pneumoniae 13882 (previously considered meropenem sensitive and cefotaxime sensitive); E. coli BAA-197 (ESBL) (which expresses an extended-spectrum (beta)-lactamase enzyme and was previously considered meropenem sensitive and cefotaxime resistant); K. pneumoniae BAA-1705 (KPC) (which expresses a carbapenemase enzyme and was previously considered meropenem resistant and cefotaxime resistant); and K. pneumoniae BAA-2146 (NDM1) (which expresses the metallo-beta-lactamase-1 enzyme and was previously considered meropenem resistant and cefotaxime resistant).
# (§2) An isolated colony from an overnight Tryptocase Soy Agar (TSA) plate of each bacteria was suspended in 1 ml Tryptocase Soy Broth (TSB) in a 5 ml BD polystyrene round bottom tube. TSB cultures were incubated at 37° C. for 1.5 hours shaking. Three 250 μl aliquots of each stationary-phase culture were then transferred to three 2 ml Eppendorf microcentrifuge tubes. One tube contained 500 μl of Normal Saline (BD); the second tube contained 500 μl Normal Saline with meropenem at 10 μg/ml; and the third tube contained 500 μl Normal Saline with cefotaxime (abbreviated […]) at 10 μg/ml. Tubes were inverted then incubated at 37° C. stagnant for thirty minutes. Then […] of lysis buffer (0.5% SDS in PSB) was added to each tube and each tube was vortexed for 5 seconds. Post incubation, all tubes were spun at 10000 G for 5 minutes. Supernatant was decanted and the pellet resuspended in Normal Saline. Tubes were vortexed. OD600 was measured using Eppendorf uvettes in a spectrophotometer. The delta between the control and the meropenem normal saline, or the control and the cefotaxime normal saline was used to determine susceptibility.
# K. pneumo BAA-1705 (KPC) = test: as above; assay type: cell-based, K. pneumoniae
# Method: as §1, §2
# [1] = system: K. pneumo BAA-2146 (NDM1); test: as above; assay type: cell-based, K. pneumoniae
# Method: as §1, §2
# E. coli BAA-197 (ESBL) = test: as above; assay type: cell-based
# Method: as §1, §2
# E. coli strain 35218 = test: Carbapenem test, Triton fixation buffer and BacUni QuickFISH staining (Example 4); assay type: cell-based; conditions: FIG. 9; E. coli 35218; 10 μg/ml
# Method: (§3) An isolated colony from an overnight Tryptocase Soy Agar (TSA) plate for each bacteria was suspended in 1 ml Tryptocase Soy Broth (TSB) in a 5 ml BD polystyrene round bottom tube. TSB cultures were incubated at 37° C. for 1.5 hours shaking. […] of each stationary-phase culture were transferred to 2 ml Eppendorf microcentrifuge tubes containing 500 μl of Normal Saline (BD); or 500 μl Normal Saline with imipenem, ertapenem, or meropenem at a concentration of […], […], or 40 μg/ml (26.67 μg/ml final concentration). Tubes were inverted then incubated at 37° C. stagnant for thirty minutes. Then 10 μl from each tube was pipetted onto plain glass slide on a 55° C. heat block, followed by 25 μl fixation buffer (0.5% T×100, 100 mM Tris pH 9, 24% Ethanol, and 10 mM NaCl); slide is incubated until sample is dry. Ten μl of BacUni QuickFISH hybridization buffer was added to each slide followed by a 22×22 mm coverslip. The slide was then incubated at 55° C. for 15 minutes. The slides were viewed on a fluorescence microscope 60× oil immersion on Dual TxR/FITC. Images were taken with a 1 second exposure.
# (§4) The control fixation in this experiment has all the same components, except no Triton X-100. This was done to assess whether the selective lysis step is required to resolve a difference between susceptible and resistant bacteria.
# [2] = system: K. pneumoniae strain 13882; test: as above; assay type: cell-based; conditions: FIG. 10; K. pneumoniae 13882; 10 μg/ml
# Method: as §3, §4
# [3] = system: K. pneumoniae strain BAA2146 NDM+; test: as above; assay type: cell-based; conditions: FIG. 11, 10 μg/ml
# Method: as §3, §4
# [4] = system: class D beta-lactamase Enterobacteriaceae; test: Lysis test on simulated blood cultures vs CLSI disk diffusion (Example 9); assay type: cell-based; conditions: the one Class D strain incorrect with ertapenem; cut-off ≦30% resistant
# Method: In this example, isolates tested include strains with and without carbapenemases. From fresh blood agar plates, three colonies per strain were used to inoculate blood culture media containing human blood and grown overnight at 37° C. with shaking, producing a simulated blood culture. Cultures were then diluted 1:10 into broth medium and grown for an additional hour at 37° C. with shaking. For each strain, four 250 μL aliquots were added into four separate 2 mL Eppendorf microcentrifuge tubes. […] Tubes were vortexed to resuspend the pellet completely, and then OD600 measurement was taken and the percent change, or percent lysis, between the control and antibiotic tubes was calculated (percent change=[control OD−antibiotic OD]/control OD). Results were then compared to the susceptibility of the strains, determined using the Clinical and Laboratory Standards Institute (CLSI) methods for disk diffusion. […]
# Of note, if a strain was determined to be intermediate to a drug by the disk diffusion method using CLSI breakpoints, it was expected to correlate to the resistant answer by the method of the invention. […] With this consideration, it is preferable that intermediate strains are conservatively scored as resistant to prevent possible treatment failure. […]
SMILES,"% diff (K. pneumo 13882; K. pneumo 13882, OD600 vs control) [%]","OD600 (K. pneumo 13882; K. pneumo 13882, antibiotic 10 μg/ml, 30 min, SDS lysis buffer + vortex, 1.5 h culture)",assay score (sensitive or resistant) (K. pneumo 13882; K. pneumoniae 13882),"% diff (K. pneumo BAA-1705 (KPC); K. pneumo BAA-1705 (KPC), OD600 vs control) [%]","OD600 (K. pneumo BAA-1705 (KPC); K. pneumo BAA-1705 (KPC), antibiotic 10 μg/ml, 30 min, SDS lysis buffer + vortex, 1.5 h culture)",assay score (sensitive or resistant) (K. pneumo BAA-1705 (KPC); K. pneumoniae BAA-1705 (KPC)),"% diff ([1]; K. pneumo BAA-2146 (NDM1), OD600 vs control) [%]","OD600 ([1]; K. pneumo BAA-2146 (NDM1), antibiotic 10 μg/ml, 30 min, SDS lysis buffer + vortex, 1.5 h culture)",assay score (sensitive or resistant) ([1]; K. pneumoniae BAA-2146 (NDM1)),assay score (sensitive or resistant) (E. coli BAA-197 (ESBL)),% diff (E. coli BAA-197 (ESBL); OD600 vs control) [%],"OD600 (E. coli BAA-197 (ESBL); antibiotic 10 μg/ml, 30 min, SDS lysis buffer + vortex, 1.5 h culture)",test result (susceptibility or resistance) by BacUni QuickFISH staining (E. coli strain 35218),test result (susceptibility or resistance) by BacUni QuickFISH staining [2],test result (susceptibility or resistance) by BacUni QuickFISH staining [3],lysis (percent change of OD600) [4] [%]
CO/N=C(\C(=O)N[C@@H]1C(=O)N2C(C(=O)O)=C(COC(C)=O)CS[C@H]12)c1csc(N)n1 [cefotaxime],69.8,0.11,sensitive,34.1,0.334,resistant,6.7,0.28,resistant,resistant,19.1,0.292,,,,
C[C@@H](O)[C@H]1C(=O)N2C(C(=O)O)=C(S[C@@H]3CN[C@H](C(=O)Nc4cccc(C(=O)O)c4)C3)[C@H](C)[C@H]12 [ertapenem],,,,,,,,,,,,,detect susceptibility,detect susceptibility,detect resistance,36
